Values of other authors in patent US8628797B2, “Oral extended-release composition” (Andrx Pharmaceuticals, LLC, priority 2003, dated 2014).

conditions: in vivo

| absorption in the presence of food | Compound |
| --- | --- |
| increased | COc1c2occc2cc2ccc(=O)oc12 [8-methoxsalen] |

same assay, conditions: in words; literature review

| absorption in the presence of food | Compound |
| --- | --- |
| delayed | C=CCOc1ccc(CC(=O)O)cc1Cl [alclofenac] |
| delayed | CC(=O)Oc1ccccc1C(=O)O [aspirin] |
| unaffected | NS(=O)(=O)c1cc2c(cc1C(F)(F)F)NC(Cc1ccccc1)NS2(=O)=O (stereo not shown) [bendroflumethiazide] |
| delayed | N[C@@H](C(=O)N[C@@H]1C(=O)N2C(C(=O)O)=C(Cl)CS[C@H]12)c1ccccc1 [cefaclor] |
| delayed | CN/C(=N/CCSCc1nc[nH]c1C)NC#N [cimetidine] |
| increased | O=c1oc2ccccc2c(O)c1Cc1c(O)c2ccccc2oc1=O [dicoumarol] |
| unaffected | CCC(=O)O[C@H]1[C@H](O[C@@H]2[C@@H](C)[C@H](O[C@H]3C[C@@](C)(OC)[C@@H](O)[C@H](C)O3)[C@@H](C)C(=O)O[C@H](CC)[C@@](C)(O)[C@H](O)[C@@H](C)C(=O)[C@H](C)C[C@@]2(C)O)O[C@H](C)C[C@@H]1N(C)C [erythromycin estolate] |
| delayed | CC(C(=O)O)c1ccc(N2Cc3ccccc3C2=O)cc1 (stereo not shown) [indoprofen] |
| increased | O=C1CN(/N=C/c2ccc([N+](=O)[O-])o2)C(=O)N1 [nitrofurantoin] |
| unaffected | spiramycin |

conditions: 1 part drug in the stated parts of water

| solubility | Compound |
| --- | --- |
| ~1,000 parts of water | CC[C@H]1OC(=O)[C@H](C)[C@@H](O[C@H]2C[C@@](C)(OC)[C@@H](O)[C@H](C)O2)[C@H](C)[C@@H](O[C@@H]2O[C@H](C)C[C@H](N(C)C)[C@H]2O)[C@](C)(OC)C[C@@H](C)C(=O)[C@H](C)[C@@H](O)[C@]1(C)O [Clarithromycin, 6-O-methylerythromycin A] |
| more than 10,000 parts of water | CC1Cc2ccccc2N1NC(=O)c1ccc(Cl)c(S(N)(=O)=O)c1 (stereo not shown) [indapamide] |
